The values that follow come from ChEMBL document CHEMBL4184096 (Bioorg Med Chem Lett, 2018).

Data set [1] deals with T1, KvLQT1/minK (Kv7.1/minK) potassium channel (Homo sapiens, UniProt P51787+Q8N4C8). The data set can be described thus: Inhibition of human KvLQT1/minK channel expressed in CHO cells at 10 uM at holding potential of -80 mV by whole cell patch clamp assay relative to control. It is filed as cell-based. The conditions noted are these: CHO cells expressing human KvLQT1/minK channel.
T1 sequence (P51787 whole entry): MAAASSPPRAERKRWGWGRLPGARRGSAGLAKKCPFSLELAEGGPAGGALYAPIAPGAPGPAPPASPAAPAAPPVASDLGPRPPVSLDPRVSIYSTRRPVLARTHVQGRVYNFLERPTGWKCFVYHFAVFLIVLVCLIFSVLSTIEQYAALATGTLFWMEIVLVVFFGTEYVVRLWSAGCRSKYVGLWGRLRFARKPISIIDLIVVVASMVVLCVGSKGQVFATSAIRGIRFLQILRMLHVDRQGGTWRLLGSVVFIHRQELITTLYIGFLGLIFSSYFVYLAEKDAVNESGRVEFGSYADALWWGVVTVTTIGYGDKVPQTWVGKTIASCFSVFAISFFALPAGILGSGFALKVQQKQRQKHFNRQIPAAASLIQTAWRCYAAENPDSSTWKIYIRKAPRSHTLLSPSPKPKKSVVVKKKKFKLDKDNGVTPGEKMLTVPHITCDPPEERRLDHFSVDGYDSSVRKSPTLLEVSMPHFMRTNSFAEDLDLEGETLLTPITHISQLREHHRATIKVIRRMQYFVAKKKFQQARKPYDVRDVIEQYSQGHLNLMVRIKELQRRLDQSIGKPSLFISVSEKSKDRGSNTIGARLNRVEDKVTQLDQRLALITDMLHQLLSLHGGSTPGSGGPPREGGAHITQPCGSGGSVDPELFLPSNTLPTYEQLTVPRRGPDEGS
T1 sequence (Q8N4C8 whole entry): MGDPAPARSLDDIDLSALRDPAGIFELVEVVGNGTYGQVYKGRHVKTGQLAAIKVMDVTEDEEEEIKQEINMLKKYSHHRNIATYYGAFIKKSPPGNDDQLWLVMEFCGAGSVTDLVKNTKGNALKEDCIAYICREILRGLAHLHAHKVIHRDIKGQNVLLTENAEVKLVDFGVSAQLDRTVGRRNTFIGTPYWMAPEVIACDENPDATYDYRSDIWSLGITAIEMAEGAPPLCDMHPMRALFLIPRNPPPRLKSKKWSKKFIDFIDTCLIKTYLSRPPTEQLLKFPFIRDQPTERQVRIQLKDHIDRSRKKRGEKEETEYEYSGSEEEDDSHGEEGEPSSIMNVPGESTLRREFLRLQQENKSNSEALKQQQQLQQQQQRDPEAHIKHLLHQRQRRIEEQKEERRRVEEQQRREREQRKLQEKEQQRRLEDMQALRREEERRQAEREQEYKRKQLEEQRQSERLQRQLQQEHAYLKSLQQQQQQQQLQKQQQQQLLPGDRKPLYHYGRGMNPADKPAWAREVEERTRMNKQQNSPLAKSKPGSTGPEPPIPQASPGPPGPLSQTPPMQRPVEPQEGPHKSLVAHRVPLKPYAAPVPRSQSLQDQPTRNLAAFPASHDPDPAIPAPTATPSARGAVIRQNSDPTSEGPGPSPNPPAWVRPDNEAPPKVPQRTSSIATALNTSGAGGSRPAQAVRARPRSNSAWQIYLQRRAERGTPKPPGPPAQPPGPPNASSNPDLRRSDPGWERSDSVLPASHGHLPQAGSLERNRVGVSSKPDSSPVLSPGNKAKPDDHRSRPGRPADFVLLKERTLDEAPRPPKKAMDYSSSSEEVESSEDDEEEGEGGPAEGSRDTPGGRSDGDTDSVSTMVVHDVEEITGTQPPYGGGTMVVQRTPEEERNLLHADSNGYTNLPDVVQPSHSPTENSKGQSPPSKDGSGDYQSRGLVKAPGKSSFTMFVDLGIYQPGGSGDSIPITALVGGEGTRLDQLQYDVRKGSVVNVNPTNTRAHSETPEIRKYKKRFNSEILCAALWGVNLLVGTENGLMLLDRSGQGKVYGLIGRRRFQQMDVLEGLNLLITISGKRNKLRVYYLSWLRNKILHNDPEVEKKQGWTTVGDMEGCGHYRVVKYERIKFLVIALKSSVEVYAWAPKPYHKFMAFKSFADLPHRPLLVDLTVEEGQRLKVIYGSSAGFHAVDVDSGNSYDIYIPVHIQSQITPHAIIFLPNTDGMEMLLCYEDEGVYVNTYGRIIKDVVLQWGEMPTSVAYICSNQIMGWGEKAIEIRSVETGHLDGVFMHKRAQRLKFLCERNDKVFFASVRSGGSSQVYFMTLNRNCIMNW

Another data set addresses hERG (KCNH2) (Homo sapiens, UniProt Q12809). The data set can be described thus: Inhibition of human ERG expressed in HEK293 cells at 30 nM at holding potential of -80 mV by whole cell patch clamp assay relative to control. It is filed as cell-based. The conditions noted are these: HEK293 cells expressing human ERG. For orientation: Patch clamp records ionic current or voltage across a cell membrane.

Data set [2] is described as follows: Protein binding to human plasma at 30 to 1000 ng/ml after 2 to 6 hrs by LC-MS/MS based rapid equilibrium dialysis method. The conditions noted are these: read-out: PPB (converted). In kind it is ADME, cell-free.
Data set [3] in a line: Fraction unbound in human plasma at 30 to 1000 ng/ml after 2 to 6 hrs by LC-MS/MS based rapid equilibrium dialysis method. It is filed as ADME, cell-free. Background: In equilibrium dialysis free small molecules cross a membrane that holds back macromolecules.
In data set [4] the target is T2, Voltage-gated inwardly rectifying potassium channel KCNH2 (Homo sapiens, UniProt Q12809). The data set can be described thus: Inhibition of human ERG expressed in HEK293 cells at holding potential of -80 mV by whole cell patch clamp assay. It is filed as cell-based.
Data set [5] addresses T1, KvLQT1/minK (Kv7.1/minK) potassium channel. Briefly: Inhibition of human KvLQT1/minK channel expressed in CHO cells at 1 uM at holding potential of -80 mV by whole cell patch clamp assay relative to control. It is filed as cell-based. The conditions noted are these: CHO cells expressing human KvLQT1/minK channel.
In data set [6] the target is Sodium channel protein type 5 subunit alpha (Homo sapiens, UniProt Q14524). The data set can be described thus: Inhibition of human Nav1.5 channel expressed in HEK293 cells at holding potential of -70 mV by whole cell patch clamp assay. In kind it is cell-based.
Chain of Sodium channel protein type 5 subunit alpha (Q14524 whole entry): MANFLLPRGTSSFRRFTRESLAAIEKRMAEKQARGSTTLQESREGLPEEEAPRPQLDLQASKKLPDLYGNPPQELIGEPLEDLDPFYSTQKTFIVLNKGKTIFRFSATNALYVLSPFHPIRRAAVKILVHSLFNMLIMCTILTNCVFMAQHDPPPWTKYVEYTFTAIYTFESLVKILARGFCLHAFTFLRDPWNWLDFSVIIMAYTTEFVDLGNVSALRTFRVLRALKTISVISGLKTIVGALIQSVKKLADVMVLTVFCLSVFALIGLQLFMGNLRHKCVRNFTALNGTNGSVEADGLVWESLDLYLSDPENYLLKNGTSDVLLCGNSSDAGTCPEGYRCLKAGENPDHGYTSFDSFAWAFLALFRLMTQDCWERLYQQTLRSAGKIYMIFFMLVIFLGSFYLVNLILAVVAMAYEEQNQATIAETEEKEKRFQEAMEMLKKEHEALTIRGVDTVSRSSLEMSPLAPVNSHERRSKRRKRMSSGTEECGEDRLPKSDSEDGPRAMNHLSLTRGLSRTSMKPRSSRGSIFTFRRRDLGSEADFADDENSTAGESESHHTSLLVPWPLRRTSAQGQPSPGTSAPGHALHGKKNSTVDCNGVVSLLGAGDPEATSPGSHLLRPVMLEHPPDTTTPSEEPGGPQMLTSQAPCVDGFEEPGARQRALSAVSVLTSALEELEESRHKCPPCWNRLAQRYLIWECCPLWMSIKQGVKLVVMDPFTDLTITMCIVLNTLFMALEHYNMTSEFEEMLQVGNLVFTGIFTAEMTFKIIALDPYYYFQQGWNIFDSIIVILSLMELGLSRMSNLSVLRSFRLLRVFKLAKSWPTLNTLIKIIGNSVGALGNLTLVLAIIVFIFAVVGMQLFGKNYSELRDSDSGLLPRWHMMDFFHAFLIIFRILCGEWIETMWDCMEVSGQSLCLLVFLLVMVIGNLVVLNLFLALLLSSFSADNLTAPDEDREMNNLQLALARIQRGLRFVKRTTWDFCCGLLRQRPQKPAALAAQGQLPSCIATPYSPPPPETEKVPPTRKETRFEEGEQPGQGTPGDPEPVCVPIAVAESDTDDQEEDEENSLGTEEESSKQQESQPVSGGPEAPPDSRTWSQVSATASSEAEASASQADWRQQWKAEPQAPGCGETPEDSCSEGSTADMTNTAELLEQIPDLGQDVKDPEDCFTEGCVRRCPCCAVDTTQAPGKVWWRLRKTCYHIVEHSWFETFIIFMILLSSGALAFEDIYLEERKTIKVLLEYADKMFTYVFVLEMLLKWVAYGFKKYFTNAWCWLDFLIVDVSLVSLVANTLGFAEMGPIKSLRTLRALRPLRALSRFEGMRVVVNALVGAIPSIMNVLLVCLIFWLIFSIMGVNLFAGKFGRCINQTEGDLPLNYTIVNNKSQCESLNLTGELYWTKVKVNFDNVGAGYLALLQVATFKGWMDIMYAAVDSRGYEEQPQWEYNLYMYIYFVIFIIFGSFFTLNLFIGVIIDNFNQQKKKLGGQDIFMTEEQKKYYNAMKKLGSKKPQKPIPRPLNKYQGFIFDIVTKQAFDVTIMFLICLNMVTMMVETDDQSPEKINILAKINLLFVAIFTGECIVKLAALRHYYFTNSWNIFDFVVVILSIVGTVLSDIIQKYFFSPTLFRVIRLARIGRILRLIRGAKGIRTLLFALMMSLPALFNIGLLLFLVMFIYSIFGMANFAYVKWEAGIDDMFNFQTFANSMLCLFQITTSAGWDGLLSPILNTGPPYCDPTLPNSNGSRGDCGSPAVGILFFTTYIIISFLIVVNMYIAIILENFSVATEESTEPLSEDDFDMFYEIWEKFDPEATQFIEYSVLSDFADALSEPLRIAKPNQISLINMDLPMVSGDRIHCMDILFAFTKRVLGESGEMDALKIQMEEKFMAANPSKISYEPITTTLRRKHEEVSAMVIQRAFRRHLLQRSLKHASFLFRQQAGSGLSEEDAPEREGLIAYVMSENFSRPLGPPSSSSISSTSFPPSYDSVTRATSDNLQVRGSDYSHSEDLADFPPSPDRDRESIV
Data set [7] is described as follows: Plasma concentration in human cardiac arrhythmia model. It is filed as ADME, cell-free.
Data set [8] addresses T2, Voltage-gated inwardly rectifying potassium channel KCNH2. Briefly: Inhibition of human ERG expressed in HEK293 cells by patch clamp assay. It is filed as cell-based.

For the compound `CNC(=O)C(CCN1CCC(O)(c2ccc(Cl)cc2)CC1)(c1ccccc1)c1ccccc1`, the inhibition at 10 µM in data set [1] was found to be 23%. Moreover, on hERG (KCNH2), at 0.03 µM the inhibition was 5.9%. Further, in [2], the fraction unbound is 0.043. This compound also gave a Cp(f) in [3] of 48 to 54 nM. Besides, the IC50 in data set [4] turned out to be 245 nM; in data set [6], 483 nM. In data set [5], this compound showed an inhibition at 1 µM of 4%. Also, the Cp in data set [7] was 560 to 630 ng/mL.

As for `CN(C)C(=O)C(CCN1CCC(O)(c2ccc(Cl)cc2)CC1)(c1ccccc1)c1ccccc1` [LOPERAMIDE], the “inhibition (INH)” value in data set [8] was 20%. In [1], this compound showed an inhibition at 10 µM of 65%. Further, the fraction unbound in data set [2] was 0.03 to 0.05. The compound also returned a Cp(f) in [3] of 6.3 to 10 nM. For the same compound, in data set [5], the inhibition at 1 µM is 17%. Besides, the IC50 in data set [6] came to 239 nM. The compound also returned a Cp in data set [7] of 76 to 120 ng/mL.

For orientation: inhibition means the change of the read-out against control, counted positive when it falls. The term IC50 denotes the concentration that inhibits the measured activity by half. Read a low IC50 as inhibition by little substance.
